SMILES strings stand for the structures.

The target of the first test is T1, ferroportin (Fpn) (Mus musculus, UniProt Q9JHI9).
T1 construct: host or cells: J774 mouse macrophage cell line, Fe(III)-NTA induced
T1 sequence (Q9JHI9 1-570): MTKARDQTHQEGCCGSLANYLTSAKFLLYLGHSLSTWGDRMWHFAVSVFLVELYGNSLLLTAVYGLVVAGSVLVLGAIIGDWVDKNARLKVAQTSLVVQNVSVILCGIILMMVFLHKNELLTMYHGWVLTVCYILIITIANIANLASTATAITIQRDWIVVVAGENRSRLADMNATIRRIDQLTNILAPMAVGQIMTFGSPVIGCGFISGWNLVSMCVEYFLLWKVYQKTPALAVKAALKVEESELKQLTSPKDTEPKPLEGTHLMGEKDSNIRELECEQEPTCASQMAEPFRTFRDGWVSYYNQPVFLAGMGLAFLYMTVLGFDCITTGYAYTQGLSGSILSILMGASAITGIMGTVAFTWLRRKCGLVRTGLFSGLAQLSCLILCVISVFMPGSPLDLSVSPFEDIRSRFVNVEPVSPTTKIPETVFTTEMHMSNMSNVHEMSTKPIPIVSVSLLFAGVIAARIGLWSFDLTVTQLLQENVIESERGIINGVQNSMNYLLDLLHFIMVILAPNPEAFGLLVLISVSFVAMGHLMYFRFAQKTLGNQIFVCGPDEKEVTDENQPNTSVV
The test is described as follows: Hepcidin Internalization Assay (J774). Type of test: cell-based. Conditions: IC50 of unlabeled hepcidin in the hepcidin internalization assay, J774 cells, TMR-hepcidin 25 nM. The gist of the method:
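Inhibition of fluorescent TMR-hepcidin uptake via ferroportin was imaged in fixed J774 cells after a 2 h, 37 °C co-incubation with compound dilutions; cells were pre-cultured overnight with 200 μM Fe(III)NTA. Internalized TMR signal per cell (Sum(Mean)) was fitted as log(inhibitor) vs. response for IC50, in triplicate.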
`CC[C@H](C)[C@@H]1NC(=O)[C@@H](NC(=O)[C@@H](NC(=O)[C@@H]2CCCN2C(=O)[C@H](Cc2ccccc2)NC(=O)[C@H](Cc2c[nH]cn2)NC(=O)[C@@H](NC(=O)[C@@H](N)CC(=O)O)[C@@H](C)O)[C@@H](C)CC)CSSC[C@@H](C(=O)N[C@@H](CCCCN)C(=O)N[C@H](C(=O)O)[C@@H](C)O)NC(=O)[C@@H]2CSSC[C@@H]3NC(=O)[C@@H]4CSSC[C@H](NC(=O)[C@H](Cc5ccccc5)NC1=O)C(=O)N[C@@H](CSSC[C@H](NC(=O)[C@H](CCCCN)NC(=O)[C@H](CO)NC(=O)[C@H](CCCNC(=N)N)NC(=O)[C@H](Cc1c[nH]cn1)NC3=O)C(=O)NCC(=O)N[C@@H](CCSC)C(=O)N2)C(=O)NCC(=O)N4` [hepcidin, reference compound]: the IC50 is 0.015 ± 0.011 µM.

Still in this test, the particulars now being: average of multiple measurements; inhibition of TMR-hepcidin (25 nM) internalization into J774 cells; read-out: J774 IC50.
Take `O=C(NCc1ncccc1F)c1csc(CCCNCc2nc3ccccc3[nH]2)n1` [Example 134]: the half-inhibitory concentration (IC50) turned out to be 0.377 µM.

For the compound `O=C(NCc1ncccc1F)c1coc(C2CN(CCc3nc4ccccc4[nH]3)C2)n1` [Example 208], the IC50 was found to be 0.012 µM.

As for `O=C(NC1CCc2cccnc21)c1csc(CCNCCc2nc3ccccc3[nH]2)n1` (stereo not drawn) [Example 158], the IC50 was found to be 0.047 µM.

Take `O=C(NCc1ncccc1Cl)c1coc(CCNCc2nc3ccccc3[nH]2)n1` [Example 141]: the IC50 was determined as 0.167 µM.

As to `O=C(NCc1ncccc1Cl)c1csc(CCNCc2nc3ccccc3[nH]2)n1` [Example 82], the IC50 was determined as 0.006 µM.

Turning to `O=C(NCc1ncccc1F)c1csc(CCNCCc2nc3c(F)cccc3[nH]2)n1` [Example 243], the IC50 came out at 0.032 µM.

Take `O=C(NCc1ncccc1F)c1ncn(CCNCCc2nc3ccccc3[nH]2)n1` [Example 181]: the IC50 is 0.135 µM.

As for `O=C(NCc1ncccc1F)c1cnn(CCNCCc2nc3ccccc3[nH]2)c1` [Example 111], the IC50 is 0.035 µM.

Take `O=C(NCc1ncccc1F)c1coc(CCNCCc2nc3cc(F)ccc3[nH]2)n1` [Example 250]: the IC50 amounted to 0.014 µM.

Take `O=C(NCc1ccccn1)c1coc(CCNCc2nc3ccccc3[nH]2)n1` [Example 137]: the IC50 is 0.514 µM.

For the compound `O=C(NC1CCc2cccnc21)c1csc(CCNCc2nc3ccccc3[nH]2)n1` (stereo not drawn) [Example 39], the IC50 came out at 0.07 µM.

For `O=C(NCc1ncccc1F)c1nc(CCNCCc2nc3ccccc3[nH]2)sc1Cl` [Example 154], the IC50 worked out at 0.0083 µM.

As to `O=C(NCc1ncccc1F)c1csc(CCNCCc2nc3cc(F)ccc3[nH]2)n1` [Example 120], the IC50 worked out at 0.034 µM.

Regarding `O=C(NCc1ncccc1F)c1cncc(C2CN(CCc3nc4ccccc4[nH]3)C2)c1` [compound 237], the IC50 is 0.081 µM.

Take `O=C(NCc1ncccc1F)c1cccc(CNCCc2nc3ccccc3[nH]2)c1` [Example 224]: the IC50 was 0.14 µM.

As for `O=C(NCc1ncccc1F)c1coc(CCNCc2nc3ccccc3[nH]2)n1` [Example 126], the IC50 is 0.096 µM.

For the compound `O=C(NCc1ncccc1F)c1coc(CCNCCc2nc3c(Cl)cccc3[nH]2)n1` [Example 226], the IC50 turned out to be 0.049 µM.

On to `O=C(NCc1ncccc1F)c1csc(CNCCc2nc3ccccc3[nH]2)n1` [Example 118], for which the IC50 amounted to 0.103 µM.

As for `O=C(NCc1cccnn1)c1nc(CCNCc2nc3ccccc3[nH]2)sc1Cl` [Example 161], the IC50 turned out to be 0.361 µM.

As to `Cc1oc(CCNCCc2nc3ccccc3[nH]2)nc1C(=O)NCc1ncccc1F` [Example 230], the IC50 is 0.14 µM.

In the case of `Cc1cnccc1CNC(=O)c1csc(CCNCc2nc3ccccc3[nH]2)n1` [Example 90], the IC50 is 0.025 µM.

On to `O=C(NCc1ncccc1Cl)c1cnn(CCNCc2nc3ccccc3[nH]2)c1` [Example 138], for which the IC50 was 0.179 µM.

Regarding `O=C(NCc1ncccc1F)c1coc(CCNCCc2nc3c(F)cccc3[nH]2)n1` [Example 228], the concentration for half-maximal inhibition (IC50) was 0.046 µM.

For `O=C(NCc1ncccc1F)c1csc(CCNCC(F)(F)c2nc3ccccc3[nH]2)n1` [Example 196], the half-inhibitory concentration (IC50) is 1.13 µM.

Consider `O=C(NCc1ncccc1F)c1ncn(CCNCc2nc3ccccc3[nH]2)n1` [Example 169], for which the IC50 was found to be 0.75 µM.

Take `O=C(NCc1ncccc1F)c1csc(CCN(CCc2nc3ccccc3[nH]2)CCc2nc3ccccc3[nH]2)n1` [Example 152]: the half-inhibitory concentration (IC50) was 0.004 µM.

With `O=C(NCc1ncccc1Cl)c1cnn(CCNCCc2nc3ccccc3[nH]2)c1` [Example 144], the IC50 is 0.012 µM.

As for `O=C(NCc1ncc(F)cc1F)c1csc(CCNCCc2nc3ccccc3[nH]2)n1` [Example 116], the concentration for half-maximal inhibition (IC50) was found to be 1 µM.

For `O=C(NCc1cccnn1)c1csc(CCNCCc2nc3ccccc3[nH]2)n1` [Example 122], the IC50 worked out at 0.026 µM.

As to `O=C(NCc1ncccc1F)c1coc(C2CN(CCc3nc4c(F)cccc4[nH]3)C2)n1` [Example 239], the IC50 was 0.036 µM.

With `O=C(NCc1ncccc1F)c1coc(CCNCCc2nc3c(F)cc(F)cc3[nH]2)n1` [Example 249], the IC50 stood at 0.04 µM.

As for `O=C(NCc1ncccc1F)c1nc(CCNCc2nc3ccccc3[nH]2)sc1Cl` [Example 151], the IC50 amounted to 0.111 µM.

With `O=C(NCc1ncccc1F)c1csc(CCNCCc2nc3ccccc3[nH]2)n1` [Example 94], the half-inhibitory concentration (IC50) worked out at 0.012 µM.

With `O=C(NCc1ccccn1)c1csc(CCNCc2nc3ccccc3[nH]2)n1` [Example 12], the IC50 was determined as 0.08 µM.

In the case of `O=C(NCc1ncccc1F)c1coc(CCNCCc2nc3ccccc3[nH]2)n1` [Example 127], the IC50 worked out at 0.009 µM.

The term IC50 denotes the midpoint of a concentration-inhibition curve.

The values are drawn from patent publication US10738041B2, “Ferroportin inhibitors” (Vifor (International) AG, priority 2015, dated 2020).
